# Results from US20120309087A1, “CANCER THERAPY” (University Court of The University of Dundee, priority 2006, published 2012).
# Assays:
# [1] = tested on: ARE-driven luciferase activity in AREc32 cells; assay: Antagonism of induced ARE-driven luciferase activity in AREc32 cells; assay type: cell-based, human
# [2] = target: interaction between RARα and Nrf2 (Homo sapiens, UniProt P10276); assay: Co-immunoprecipitation of RARα and Nrf2; assay type: binding; conditions: co-immunoprecipitation experiments
# [3] = tested on: GST, GCLC and NQO1 in the small intestine; assay: ARE-regulated proteins in small intestine of mice on vitamin A deficient diet; assay type: in vivo; conditions: wild-type mice; ATRA i.p. 10 mg/kg daily for last 2 weeks of VAD diet
# Experimental: Wild-type (nrf2^+/+) and knockout (KO, nrf2^−/−) mice, 8 weeks old, were placed on control or vitamin A deficient (VAD) diet for six weeks as described in “Materials and Methods II”. Portions (5 μg protein) of crude extracts from small intestine of wild-type and KO mice were subjected to Western blotting with specific antibodies against NQO1, GstM5, GstA1/2 and GCLC. Each lane contains a sample from an individual mouse. […] These animals were sacrificed and immunoblotting for GST, GCLC and NQO1 performed as before.
# Homozygous Nrf2 KO mice and mouse genotyping were as described previously (Itoh et al., 1997). Two month old, C57BL/6 nrf2^−/− and nrf2^+/+ male mice were used in this study. Animals were maintained in a 12-h light-dark cycle, with free access to food and water. The mice were weighed daily during the experiment period. All animal procedures were carried out under UK Home Office license and after gaining local ethical committee approval.
# Two feeding experiments were carried out. In Experiment 1, at the first stage, which lasted for four weeks, Nrf2 (+/+) mice were maintained on a retinoic acid deficient VAD diet (Special Diet Services, Witham, Essex, UK). […] In experiment 2, Nrf2 (−/−) mice were maintained on control or VAD diet for six weeks. […]
# [4] = tested on: AKR1C mRNA in AREc32 cells; assay: AKR1C mRNA in AREc32 cells (TaqMan)
# [5] = tested on: AKR1C protein in Caco-2 cells; assay: AKR1C protein in Caco-2 cells (Western blotting); assay type: cell-based, human; conditions: sulforaphane 5 μM, BTB09463 5 μM or Retinoic acid 1 μM, 24 hrs
# Experimental: Method: AREc32 cells were seeded out in 96 well plates and treated with DMSO (control), tBHQ (50 μM), tBHQ+BTB09463 (5 μM) or tBHQ+Retinoic acid (1 μM). After 24 hours incubation, cells were washed and lysed before measuring luciferase activity. BTB09463 is 1-{4-[(3,4-dichlorobenzyl)oxy]phenyl}ethan-1-one. […] Method: AREc32 cells were seeded out in 96 well plates and dosed with BTB09463 (2.5, 5 or 10 μM) for 0, 24 or 48 hrs before treatment with tBHQ (50 μM). 24 hours after the addition of tBHQ, cells were washed and lysed before measuring luciferase activity. […] Method: ARE c32 cells were seeded out in 96 well plates and treated with DMSO (control), tBHQ (50 μM), tBHQ+retinoid (0.25, 0.5 and 1 μM). After 24 hours incubation, cells were washed and lysed before measuring luciferase activity. […] See FIG. 16 Method: A. Caco-2 cells were treated with the known ARE-gene inducer sulforaphane (5 μM), either alone or concomitantly with BTB09463 (5 μM) or Retinoic acid (1 μM). After 24 hrs, cell lysates were prepared and Western blotting performed to measure the levels of AKR1C protein. B. MCF7 cells were treated with sulforaphane (5 μM), either alone or concomitantly with BTB09463 (5 μM). After 24 hrs, cell lysates were prepared and Western blots performed to detect the levels of AKR1C and NQO1; GAPDH was used as a loading control in MCF7 cells. […] Method: Caco-2 cells were treated with DMSO (control), BTB09463 (5 μM), sulforaphane (5 μM) or a combination of sulforaphane plus BTB09463. After 24 hrs treatment, cells were harvested and RNA isolated. cDNA for each sample was generated by reverse transcription and subsequently used in real time PCR analysis of gene transcription (TaqMan analysis) for the ARE-driven genes AKR1C1 and NQO1. Data was normalised to the internal control 18S RNA and the relative levels of AKR1C1 and NQO1 calculated using the comparative CT method. […] Method: MCF7 cells were treated with the known ARE-gene inducer sulforaphane (5 μM), either alone or with various retinoids (0.5 μM). After 24 hrs, cell lysates were prepared and Western blots were performed to detect the levels of AKR1C protein present. […] See FIG. 19 Method: ARE reporter cell line AREc23 was seeded into 96 well plates and treated with a previously determined non-toxic concentration of cytotoxic drug. After 24 hours incubation, cells were washed and lysed before measuring luciferase activity. […] See FIG. 20a Method: ARE reporter cell line AREc23 was seeded into 96 well plates and treated with DMSO (control), Carmustine (100 μM), Carmustine+BTB09463 (5 μM) or Carmustine+Retinoic acid (5 μM) After 24 hours incubation, cells were washed and lysed before measuring luciferase activity. […] After 24 hours incubation, cells were washed and lysed before measuring luciferase activity. […]
# [6] = tested on: binding of Nrf2 to an ARE sequence; assay: Biotinylated ARE oligonucleotide pull-down assay, AREc32 nuclear extracts; conditions: 10 μM tBHQ with 1 μM ATRA, 24 h
# [7] = tested on: AKR1C1, NQO1, GCLC, GCLM mRNA in A549 cells; assay: Constitutive mRNA of ARE-driven genes in A549 cells (Taqman); assay type: cell-based, human; conditions: 24 hrs
# [8] = tested on: protein complexes binding to an ARE sequence; assay: Electrophoretic mobility shift assay with ARE probe, AREc32 nuclear extracts; conditions: 10 μM tBHQ with 1 μM ATRA, 24 h
# [9] = tested on: Nrf2; assay: Nuclear Nrf2 level in AREc32 cells (western blot of nuclear extracts); conditions: 10 μM tBHQ plus 1 μM ATRA, 24 h
# [10] = tested on: AKR1C protein in AREc32 cells; assay: AKR1C protein in AREc32 cells (western blotting); conditions: 1 μM ATRA, 10 μM tBHQ; scanning of the Western blots
# [11] = 1 μM ATRA with 10 μM tBHQ, acrolein, NF or Sul, 24 h
# Sequence of interaction between RARα and Nrf2 (P10276 whole entry): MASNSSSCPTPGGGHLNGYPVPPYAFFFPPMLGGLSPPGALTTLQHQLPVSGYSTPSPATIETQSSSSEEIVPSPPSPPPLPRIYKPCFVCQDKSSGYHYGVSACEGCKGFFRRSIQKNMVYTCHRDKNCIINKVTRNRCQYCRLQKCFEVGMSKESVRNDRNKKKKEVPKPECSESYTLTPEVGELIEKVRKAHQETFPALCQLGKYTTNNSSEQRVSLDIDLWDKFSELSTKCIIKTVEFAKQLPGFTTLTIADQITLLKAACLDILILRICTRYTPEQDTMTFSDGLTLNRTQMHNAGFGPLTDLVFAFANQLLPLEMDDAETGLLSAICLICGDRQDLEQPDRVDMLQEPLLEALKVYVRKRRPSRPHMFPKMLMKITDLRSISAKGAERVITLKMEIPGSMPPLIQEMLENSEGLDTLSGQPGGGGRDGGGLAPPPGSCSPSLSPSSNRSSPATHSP
# Sequence of interaction between RARα and Nrf2 (Q16236 whole entry partner): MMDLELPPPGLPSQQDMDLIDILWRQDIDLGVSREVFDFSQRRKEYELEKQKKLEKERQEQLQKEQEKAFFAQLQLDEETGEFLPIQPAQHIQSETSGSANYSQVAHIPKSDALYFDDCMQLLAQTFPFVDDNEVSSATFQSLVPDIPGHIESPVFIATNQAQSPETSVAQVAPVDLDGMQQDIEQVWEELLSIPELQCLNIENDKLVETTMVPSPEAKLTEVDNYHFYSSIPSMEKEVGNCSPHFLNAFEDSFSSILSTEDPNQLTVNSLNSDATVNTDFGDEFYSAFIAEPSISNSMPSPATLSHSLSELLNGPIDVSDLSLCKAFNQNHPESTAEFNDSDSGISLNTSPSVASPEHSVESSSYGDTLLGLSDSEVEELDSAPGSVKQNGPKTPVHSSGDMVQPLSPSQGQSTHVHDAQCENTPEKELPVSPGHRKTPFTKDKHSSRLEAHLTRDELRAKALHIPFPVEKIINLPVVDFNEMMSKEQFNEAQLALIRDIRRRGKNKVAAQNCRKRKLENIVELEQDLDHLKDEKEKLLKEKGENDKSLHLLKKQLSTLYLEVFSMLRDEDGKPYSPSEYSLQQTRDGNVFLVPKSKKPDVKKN
smiles,measurement,setting,value
"CC1=C(/C=C/C(C)=C/C=C/C(C)=C/C(=O)O)C(C)(C)CCC1 [ATRA, all trans-retinoic acid]",effect on increase in ARE-driven luciferase activity by inducing agents,[1]; [11],significantly attenuated
same,luciferase activity following subtraction of the DMSO control,[1]; [11],almost complete ablation of luciferase activity
same,induction of ARE-driven luciferase activity by anticancer drugs,"[1]; 1 μM ATRA with cisplatin, melphalan, chlorambucil or BCNU, no BSO",prevented
same,ARE responses to anticancer drugs after BSO pre-treatment,"[1]; 1 μM ATRA, 50 μM BSO pre-treatment, after subtraction of DMSO control",reduced almost to background levels
same,lag phase before increase of luciferase activity,[1]; 10 μM tBHQ plus 1 μM ATRA simultaneously,16 h
same,suppression of tBHQ induction of luciferase,"[1]; 50 μM tBHQ + 1 μM Retinoic acid, 24 h",~75%
same,carmustine-mediated induction of luciferase activity,"[1]; Carmustine 100 μM + BTB09463 5 μM or Retinoic acid 5 μM, 24 hours",completely suppress
same,association between RARα and Nrf2,[2],greatly promoted
same,"induction of ARE-driven genes (GstM5, GCLC, NQO1, GstA1) by VAD diet in the small intestine",[3],almost completely reversed
same,inhibition of tBHQ induction of AKR1C1 mRNA,"[4]; 1 μM ATRA, after subtracting the DMSO control",approximately 85%
same,induction of AKR1C1 mRNA by tBHQ on co-incubation,"[4]; 10 μM tBHQ plus 1 μM ATRA, 24 h",3 fold
same,sulforaphane induction of AKR1C protein,[5],dramatically reduced
same,binding of Nrf2 to the ARE (pull-down),[6],inhibited the binding of Nrf2 to the ARE
same,constitutive expression of AKR1C1 mRNA,"[7]; BTB09463 1, 5, 20, 40 μmol/l or retinoids 0.050, 0.20, 0.50, 2.0 μmol/l",inhibited the constitutive expression of AKR1C1 in a concentration-dependent manner
same,"constitutive mRNA levels of NQO1, GCLC and GCLM",[7]; BTB09463 1-40 μmol/l or retinoic acid 0.050-2.0 μmol/l,"repressed the constitutive mRNA levels of NQO1, GCLC and GCLM in a concentration-dependent manner"
same,binding of complexes to core ARE sequence (EMSA),[8],binding was reduced
same,nuclear translocation / nuclear concentration of Nrf2,[9],did not block nuclear translocation of Nrf2
same,reduction of tBHQ-induced AKR1C protein,[10],approximately 50%
